In patent publication US7947293B2, “Aqueous pharmaceutical formulation” (Arpida AG, priority 2008, dated 2011):
Where two headings read alike, the source gives them in different places.

Legend:
Assay type in all cases: physicochemical
[1] = Solubility of iclaprim methanesulfonic acid salt in aqueous/organic solutions, HPLC of supernatant; settings: for solubility at 24 h: thermodynamic from solid
Method: A fixed amount of iclaprim mesylate was suspended in the different aqueous/organic solutions. The suspension was stirred at room temperature for 24 hours. The supernatant of the solutions were analyzed by HPLC to determine the amount of iclaprim in the solution.

[2] = Stress heating of standard formulation (simulated long term storage), HPLC; settings: 20 mg/mL in 30% propylene glycol in water, normal atmosphere
Method: Within the scope of the present invention various standard aqueous formulations of 5-[(2RS)-2-cyclopropyl-7,8-dimethoxy-2H-1-benzopyran-5-ylmethyl]-pyrimidine-2,4-diamine and its acid addition salts were tested for long term stability. For example, vials of 5-[(2RS)-2-cyclopropyl-7,8-dimethoxy-2H-1-benzopyran-5-ylmethyl]-pyrimidine-2,4-diamine methanesulfonic acid salt were prepared in 30% propylene glycol in water at a concentration of iclaprim of 20 mg/mL. In order to examine the stability of the above standard formulations a model system was used to simulate long term storage conditions. In this model system, the solutions to be tested are stress heated at 40° C. and 70° C. for at least 12 days. The analysis of the solutions after completion of the heating step were made by means of methods well known to those skilled in the art such as, for example, HPLC measurements. Vials of 5-[(2RS)-2-cyclopropyl-7,8-dimethoxy-2H-1-benzopyran-5-ylmethyl]-pyrimidine-2,4-diamine methanesulfonic acid salt (20 mg/mL) were prepared in 30% propylene glycol in Millipore water under normal atmosphere. In order to examine the stability of the above formulation a model experiment was developed wherein the solutions to be tested are stress heated. It is well know in the art that by heating a test sample at a temperature higher than room temperature (about 20° C.) such as between 40° C. and 70° C. for a prolonged period of time, long storage conditions can be simulated. The analysis of the solutions after completion of the heating step was made by means of visual examinations and HPLC measurements.

[3] = Stability of iclaprim under simulated sterilization conditions at pH<3.5, HPLC; settings: 30% propylene glycol or 10% glycofurol in water
Method: Further stability tests of the above standard formulations were performed, wherein the pH was adjusted with citric acid below 3.5 under simulated sterilization conditions, such as 100° C. for 2 h. Vials of 5-[(2RS)-2-cyclopropyl-7,8-dimethoxy-2H-1-benzopyran-5-ylmethyl]-pyrimidine-2,4-diamine methanesulfonic acid salt were prepared in 30% propylene glycol or 10% glycofurol in water. The pH of the so obtained solution was adjusted to pH 3 with 1M citric acid or to pH 1 with 1N hydrochloric acid, and the vials were heated in order to simulate a sterilization process. The analysis of the solutions after completion of the heating step was performed by means of visual examinations and HPLC measurements.

Row | solubility at 24 h ([1]; 10% propylene glycol in saline 0.9%, aqueous with cosolvent or surfactant or cyclodextrin, 10% (saline 0.9%) propylene glycol, room temperature, 24 hours, read-out: Solubility calculated form HPLC measurements) [µg/mL] | solubility at 24 h ([1]; aqueous with cosolvent or surfactant or cyclodextrin, 10% aqueous propylene glycol, room temperature, 24 hours, read-out: Solubility calculated form HPLC measurements) [µg/mL] | solubility at 24 h ([1]; saline or isotonic, Saline 0.9%, room temperature, 24 hours, read-out: Solubility calculated form HPLC measurements) [µg/mL] | solubility at 24 h ([1]; saline solution with reduced propylene glycol, aqueous with cosolvent or surfactant or cyclodextrin, in saline solution, reduced propylene glycol, pH above 4.0, read-out: maximal solubility achieved) [µg/mL] | concentration at which precipitation was observed ([1]; saline solutions, e.g. 10% propylene glycol saline solution) | solubility at 24 h ([1]; water, room temperature, 24 hours, read-out: Solubility calculated form HPLC measurements) [µg/mL] | % iclaprim ([2]; 12 days, 40° C.) [%] | % iclaprim ([2]; 12 days, 70° C.) [%] | % iclaprim ([2]; 45 days, about 20° C.) [%] | % iclaprim ([2]; fresh solution, 0 min, about 20° C.) [%] | % iclaprim ([3]; 1 h, 37° C., pH 1) [%] | % iclaprim ([3]; 2 h, 100° C., pH 1) [%] | % iclaprim ([3]; 2 h, 100° C., pH 3) [%] | % iclaprim ([3]; 3 h, 37° C., pH 1) [%] | % iclaprim ([3]; 3 h, 37° C., pH 3) [%] | % iclaprim ([3]; fresh solution, 0 min, about 20° C., pH 4.5 (reference, no pH adjustment)) [%] | SMILES
1 | 7500 | 27800 | 1200 | 7500 | above 7.5 mg/mL | 18100 | – | – | – | – | – | – | – | – | – | – | COc1cc(Cc2cnc(N)nc2N)c2c(c1OC)OC(C1CC1)C=C2.CS(=O)(=O)O (racemic) [iclaprim methanesulfonic acid salt, 5-[(2RS)-2-cyclopropyl-7,8-dimethoxy-2H-1-benzopyran-5-ylmethyl]-pyrimidine-2,4-diamine methanesulfonic acid salt]
2 | – | – | – | – | – | – | 97.0 | 90.0 | 97.5 | 99.1 | 99.0 | 60.0 | 86.5 | 96.3 | 99.0 | 99.1 | COc1cc(Cc2cnc(N)nc2N)c2c(c1OC)OC(C1CC1)C=C2 (racemic) [iclaprim, 5-[(2RS)-2-cyclopropyl-7,8-dimethoxy-2H-1-benzopyran-5-ylmethyl]-pyrimidine-2,4-diamine]
